{"source": "paper PMC6014988", "about": "“Precision therapeutic targeting of human cancer cell motility” (Nature Communications, 2018)", "key": {"[1]": {"test_system": "human prostate, breast, colon, and lung cancer cells", "assay": "Single-cell migration assay", "format": "cell-based", "conditions": "10 µM, 3 days", "method": "Human prostate metastatic cells (PC3, PC3-M), and HPV-transformed normal (1532NPTX, 1542NPTX) and primary cancer (1532CPTX, 1542CPTX) cells, were treated with 10 µM genistein (G), KBU2046 (46), or vehicle (CO), and after 3 days, cell invasion was measured. Values are mean ± SEM of a single experiment in replicates of N = 4, with similar findings in multiple separate experiments (also N = 4). c Single-cell migration. Cell migration was measured after treatment for 3 days with 10 µM KBU2046 or vehicle (control). Values are mean ± SEM of a single experiment in replicates of N = 24, with similar findings in a separate experiment (also N = 24). *Denotes Student’s t-test P value <0.05, compared to controls. d Human cord blood hematopoietic stem cell colony formation assay. Values are the mean ± SD number of total, CFU-GM, CFU-GEMM, or BFU-E colonies at 14 days after treatment with KBU2046, from a single experiment in replicates of N = 2. e Induction of estrogen-responsive genes. Values are the mean ± SD of a single experiment, with similar results seen in a separate experiment, both in replicates of N = 2 […]"}, "[2]": {"assay": "Pharmacokinetics in CD1 mice, oral gavage and iv", "format": "in vivo, mouse", "method": "For determination of pharmacokinetic (PK) parameters, KBU2046 was administered by either intravenous injection or oral gavage to groups of N = 3 CD1(ICR) mice at 0 (i.e., vehicle only), 25, or 100 mg/kg. Blood was collected into EDTA by terminal cardiac puncture before drug administration (i.e., baseline) and at 5, 10, 15, 30, 45, 60, 90, 120, 180, 240, 360, 480, 960, 1440 min after administration. In separate experiments, as described above, Balb/c athymic mice were dosed with KBU2046 incorporated into chow for 35 days, after which blood was collected by terminal cardiac puncture. Resultant plasma (~250 μl/mouse) was stored at −80 °C.\nPlasma KBU2046 concentrations were measured in duplicate by liquid chromatography-tandem mass spectrometry after sample preparation by solid-phase extraction. Specifically, 0.1 mL of a sample, 10 μL of 0.1 μg/mL internal standard solution (3-(2-chlorophenyl)-(4H-1-benzopyran-4-one, a chloride analog of KBU2046), 3800 μL of water, and 10 μl of 85% phosphoric acid were added, vortexed, and stored at 4 °C for 2 h. After washing a 96-well Strata-X 33 µm polymeric reversed phase 30 mg/well solid-phase extraction plate (Phenomenex) with methanol and water, sample was applied, washed with 20% methanol in water, eluted with 70% acetonitrile/30% methanol, dried at 50 °C under N2, reconstituted with 100 μL of mobile phase, and 20 µL was analyzed on an API 3000 liquid chromatography-tandem mass spectrometry system (Applied Biosystems) with an Agilent 1100 series HPLC system (Agilent Technologies). Samples were eluted isocratically from a Synergi 4-μm MAX-RP 100 Å column (2.0 × 50 mm; Phenomenex) by a mobile phase consisting of 10 mM ammonium formate in water and methanol (30:70 [vol/vol]) at a flow rate of 0.20 mL/min. The tandem mass spectrometer was operated with its electrospray source in the positive ionization mode. The mass-to-charge ratios of the precursor-to-product ion reactions monitored were 243.5 → 125.1 for KBU2046 and 257.0 → 165.0 for the internal standard. The retention time of KBU2046 was ~2.7 min while that of the internal standard was ~2.3 min. The linear range for plasma KBU2046 standard curves was 0.1–25.0 ng/mL, with coefficients of variation of 10% or less throughout the entire concentration range. Fresh plasma standard curves were prepared in blank plasma and run on the day of analysis of plasma samples.\nPlasma KBU2046 concentration vs. time relationships after both intravenous and oral drug administration were modeled simultaneously using the SAAM II software system (SAAM Institute), implemented on a WindowsTM-based PC (see PK modeling schema). Plasma concentrations were modeled with a three-compartment PK model using a naive pooled data approach. Oral drug absorption was characterized by a tanks-in-series delay element, to account for the non-instantaneous appearance of drug in the body. Simultaneous estimation of PK model parameters for both routes of administration permitted estimation of the bioavailability of the orally administered drug (F)[41]. The SAAM II objective function used was the extended least-squares maximum likelihood function using data weighted with the inverse of the model-based variance of the data at the observation times. Model misspecification was sought by visual inspection of the measured and predicted marker concentrations vs. time relationships (Fig. 7)[42]."}, "[3]": {"conditions": "combined fit of both doses by both routes"}}, "note": "Like-named read-outs stand apart in the source and are kept apart here.", "data": [{"smiles": "O=C1c2ccccc2OCC1c1ccc(F)cc1", "note": "(racemic) [KBU2046, (±)-3(4-fluorophenyl)chroman-4-one]", "values": [{"measurement": "cell migration", "setting": "[1]", "value": "inhibited the migration"}, {"measurement": "clearance", "setting": "[2]; CD1(ICR), mouse, plasma, combined fit of both doses by both routes, read-out: Clearance, Elimination CLE", "value": 1.53, "unit": "mL/min"}, {"measurement": "clearance", "setting": "[2]; CD1(ICR), mouse, plasma, combined fit of both doses by both routes, read-out: Clearance, Fast CLF", "value": 0.61, "unit": "mL/min"}, {"measurement": "clearance", "setting": "[2]; CD1(ICR), mouse, plasma, combined fit of both doses by both routes, read-out: Clearance, Slow CLS", "value": 0.11, "unit": "mL/min"}, {"measurement": "Vd", "setting": "[2]; CD1(ICR), mouse, plasma, combined fit of both doses by both routes, read-out: Distribution volume, Total VSS", "value": 0.0636, "unit": "L"}, {"measurement": "half-life", "setting": "[2]; CD1(ICR), mouse, plasma, combined fit of both doses by both routes, read-out: Elim Half-life (converted)", "value": 2.27, "unit": "h"}, {"measurement": "bioavailability", "setting": "[2]; CD1(ICR), mouse, plasma, 25 mg/kg by oral gavage", "value": 4.6, "unit": "%"}, {"measurement": "bioavailability", "setting": "[2]; CD1(ICR), mouse, plasma, 100 mg/kg by oral gavage", "value": 10.1, "unit": "%"}, {"measurement": "Absorption delay", "setting": "[2]; [3]", "value": 32.3, "unit": "min"}, {"measurement": "Distribution volume, Central VC", "setting": "[2]; [3]", "value": 19.3, "unit": "mL"}, {"measurement": "Distribution volume, Fast VF", "setting": "[2]; [3]", "value": 20.4, "unit": "mL"}, {"measurement": "Distribution volume, Slow VS", "setting": "[2]; [3]", "value": 23.9, "unit": "mL"}, {"measurement": "time plasma concentrations maintained >24 nM", "setting": "[2]; single oral dose", "value": 9.3, "unit": "h"}]}]}
